The results in this text go back to patent US20240245677A1, “SELECTED COMPOUNDS FOR TARGETED DEGRADATION OF BRD9” (C4 THERAPEUTICS, INC., priority 2021, published 2024).

Where “and” joins values, the source holds several entries; their conditions need not be identical. Identical values can stand only once. Like-named read-outs stand apart in the source and are kept apart here.

This assay addresses T1, bromodomain of BRD9 (Homo sapiens, UniProt Q9H8M2).
T1 construct: made in house; host or cells: E. coli
The assay can be described thus: AlphaLISA competition assay, binding to BRD9. The protocol:
An AlphaLISA® (Perkin Elmer Inc., Dumfries, VA, USA) displacement assay was used to determine the binding affinity of Compound 1 to purified bromodomain of BRD9 protein.
Human histidine-tagged (His-tag) bromodomain of BRD9 was expressed in E. coli and purified, with a concentration of 1.1 mg/mL. The bromodomain of BRD9 was labeled with an AlphaLISA® donor bead (Catalog No. AS101R, Perkin Elmer Inc., Dumfries, VA, USA) attached via a His-tag on the protein. A potent BRD9 ligand was chemically modified to attach a biotin tag. The biotin tag was subsequently used to attach a streptavidin-labeled AlphaLISA® acceptor bead (Catalog No. AL125M, Perkin Elmer Inc., Dumfries, VA, USA).
Determination of the binding constant (Kd) of Compound 1 to the bromodomain of BRD9 was carried out using an AlphaLISA® competition assay, where binding of Compound 1 to BRD9 was measured via loss of signal upon displacement of biotinylated BRD9 ligand tagged with the AlphaLISA® acceptor bead. […]
Response (normalized signal), R, for each well containing the test compounds was calculated using the averaged signal from negative and positive control wells: […]
Compound 1 competed with fluorescence probe for binding to bromodomain of BRD9. […]

T1 sequence (Q9H8M2 136-240 limits assumed): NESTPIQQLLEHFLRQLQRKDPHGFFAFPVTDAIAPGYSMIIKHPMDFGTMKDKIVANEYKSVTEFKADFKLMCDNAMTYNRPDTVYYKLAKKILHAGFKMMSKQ

Turning to `COc1cc(-c2cn(C)c(=O)c(C)c2C)cc(OC)c1CN1CC[C@H](N2CCN(c3ccc(N[C@H]4CCC(=O)NC4=O)cc3F)CC2)C(F)(F)C1` [Compound 1, (S)-3-((4-(4-((S)-1-(2,6-dimethoxy-4-(1,4,5-trimethyl-6-oxo-1,6-dihydropyridin-3-yl)benzyl)-3,3-difluoropiperidin-4-yl)piperazin-1-yl)-3-fluorophenyl)amino)-piperidine-2,6-dione], the Kd (as a rule, the constant that tells how readily two partners part at equilibrium) is, setting by setting: (each occasion in duplicate, read-out: Kd, individual test occasion) 157 nM and 131 nM and 129 nM; (n=3, read-out: Kd (geometric mean), binding affinity to BRD9) 139 nM.
